PubChem BioAssay AID250 (DTP/NCI, 2004)
Values joined by “and” are separate entries in the source; they are usually repeats but may differ in a detail not shown here. Equal entries are not always repeated. Toxic doses and inconclusive results are not listed.

Test system: BDF1 mice, L1210 leukemia sc, survival T/C
Test: NCI In Vivo Anticancer Drug Screen. Data for tumor model L1210 Leukemia (subcutaneous) in B6D2F1 (BDF1) mice
Conditions: endpoint: median survival time, higher = longer survival
Experimental: The antitumor activity of compounds was measured in mice bearing transplantable tumors. Survival or tumor size were measured and the results are expressed as the measurement made in the treated group (T) divided by the measurement made in the vehicle treated control group (C). The tumor model used in this assay is L1210 Leukemia (subcutaneous) in B6D2F1 (BDF1) mice

[1] = dose: 108.0 mg/kg/injection, schedule: Q01DX Z (sc), vehicle: methylcellulose (MC)
[2] = dose: 180.0 mg/kg/injection, schedule: Q01DX Z (sc), vehicle: methylcellulose (MC)

## OC(c1ccccc1)c1nc2ccccc2[nH]1 (stereo not drawn)
[1]
  T/C: 100 % of control
[2]
  T/C: 100 % of control
dose: 300.0 mg/kg/injection, schedule: Q01DX Z (sc), vehicle: methylcellulose (MC)
  T/C: 100 % of control
dose: 500.0 mg/kg/injection, schedule: Q01DX Z (sc), vehicle: methylcellulose (MC)
  T/C: 100 % of control
dose: 840.0 mg/kg/injection, schedule: Q01DX Z (sc), vehicle: methylcellulose (MC)
  T/C: 100 % of control

## Nc1cc(C(=O)Nc2ccc(C3=NCCN3)cc2)ccc1C(=O)Nc1ccc(C2=NCCN2)cc1
dose: 1.0 mg/kg/injection, schedule: Q01DX Z (iv), vehicle: water
  T/C: 100 % of control
dose: 2.0 mg/kg/injection, schedule: Q01DX Z (iv), vehicle: water
  T/C: 100 % of control
dose: 2.0 mg/kg/injection, schedule: Q01DX Z (sc), vehicle: water
  T/C: 110 % of control
dose: 4.0 mg/kg/injection, schedule: Q01DX Z (iv), vehicle: water
  T/C: 120 % of control
dose: 4.0 mg/kg/injection, schedule: Q01DX Z (sc), vehicle: water
  T/C: 215 % of control
dose: 8.0 mg/kg/injection, schedule: Q01DX Z (iv), vehicle: water
  T/C: 215 % of control
dose: 8.0 mg/kg/injection, schedule: Q01DX Z (sc), vehicle: water
  T/C: 230 % of control
dose: 16.0 mg/kg/injection, schedule: Q01DX Z (iv), vehicle: water
  T/C: 215 % of control
dose: 16.0 mg/kg/injection, schedule: Q01DX Z (sc), vehicle: water
  T/C: 245 % of control
dose: 32.0 mg/kg/injection, schedule: Q01DX Z (sc), vehicle: water
  T/C: 195 % of control

## Nc1nc(=S)c2ncn(C3CC(O)C(CO)O3)c2[nH]1 (stereo not drawn)
dose: 9.0 mg/kg/injection, schedule: Q02DX005 (sc), vehicle: saline
  T/C: 160 % of control
dose: 12.5 mg/kg/injection, schedule: Q02DX005 (sc), vehicle: saline
  T/C: 177 % of control
dose: 18.0 mg/kg/injection, schedule: Q02DX005 (sc), vehicle: saline
  T/C: 162 % of control
dose: 25.0 mg/kg/injection, schedule: Q02DX005 (sc), vehicle: saline
  T/C: 177 % of control
dose: 37.0 mg/kg/injection, schedule: Q02DX005 (sc), vehicle: saline
  T/C: 152 % of control
dose: 50.0 mg/kg/injection, schedule: Q01DX009 (sc), vehicle: saline
  T/C: 100 % of control and 103 % of control
dose: 50.0 mg/kg/injection, schedule: Q02DX005 (sc), vehicle: saline
  T/C: 177 % of control
dose: 100.0 mg/kg/injection, schedule: Q01DX009 (sc), vehicle: saline
  T/C: 105 % of control and 108 % of control
dose: 100.0 mg/kg/injection, schedule: Q02DX005 (sc), vehicle: saline
  T/C: 150 % of control
dose: 150.0 mg/kg/injection, schedule: Q02DX005 (sc), vehicle: saline
  T/C: 120 % of control
dose: 200.0 mg/kg/injection, schedule: Q01DX009 (sc), vehicle: saline
  T/C: 122 % of control
dose: 400.0 mg/kg/injection, schedule: Q01DX009 (sc), vehicle: saline
  T/C: 155 % of control
dose: 600.0 mg/kg/injection, schedule: Q02DX005 (sc), vehicle: saline
  T/C: 158 % of control

## COc1cccc2c1C(=O)c1c(O)c3c(c(O)c1C2=O)CC(O)(C(=O)CO)CC3OC1CC(N)C(O)C(C)O1 (stereo not drawn)
dose: 11.4 mg/kg/injection, schedule: Q04DX003 (ip), vehicle: saline
  T/C: 87 % of control
dose: 22.8 mg/kg/injection, schedule: Q04DX003 (ip), vehicle: saline
  T/C: 89 % of control
dose: 45.6 mg/kg/injection, schedule: Q04DX003 (ip), vehicle: saline
  T/C: 90 % of control
dose: 91.2 mg/kg/injection, schedule: Q04DX003 (ip), vehicle: saline
  T/C: 95 % of control
dose: 182.4 mg/kg/injection, schedule: Q04DX003 (ip), vehicle: saline
  T/C: 103 % of control

## CCCCNc1ncnc2c1cnn2C
dose: 23.3 mg/kg/injection, schedule: Q01DX Z (sc), vehicle: methylcellulose (MC)
  T/C: 105 % of control
dose: 38.9 mg/kg/injection, schedule: Q01DX Z (sc), vehicle: methylcellulose (MC)
  T/C: 110 % of control
dose: 64.8 mg/kg/injection, schedule: Q01DX Z (sc), vehicle: methylcellulose (MC)
  T/C: 110 % of control
[1]
  T/C: 110 % of control
[2]
  T/C: 100 % of control
